# Target: Integrin alpha-IIb/beta-3 (Homo sapiens, UniProt P05106+P08514)
# Test: Inhibition of FITC-labeled fibrinogen binding to integrin alpha2bbeta3 receptor in human platelets by flow cytometry
# Sequence of Integrin alpha-IIb/beta-3 (P05106 27-788 limits assumed): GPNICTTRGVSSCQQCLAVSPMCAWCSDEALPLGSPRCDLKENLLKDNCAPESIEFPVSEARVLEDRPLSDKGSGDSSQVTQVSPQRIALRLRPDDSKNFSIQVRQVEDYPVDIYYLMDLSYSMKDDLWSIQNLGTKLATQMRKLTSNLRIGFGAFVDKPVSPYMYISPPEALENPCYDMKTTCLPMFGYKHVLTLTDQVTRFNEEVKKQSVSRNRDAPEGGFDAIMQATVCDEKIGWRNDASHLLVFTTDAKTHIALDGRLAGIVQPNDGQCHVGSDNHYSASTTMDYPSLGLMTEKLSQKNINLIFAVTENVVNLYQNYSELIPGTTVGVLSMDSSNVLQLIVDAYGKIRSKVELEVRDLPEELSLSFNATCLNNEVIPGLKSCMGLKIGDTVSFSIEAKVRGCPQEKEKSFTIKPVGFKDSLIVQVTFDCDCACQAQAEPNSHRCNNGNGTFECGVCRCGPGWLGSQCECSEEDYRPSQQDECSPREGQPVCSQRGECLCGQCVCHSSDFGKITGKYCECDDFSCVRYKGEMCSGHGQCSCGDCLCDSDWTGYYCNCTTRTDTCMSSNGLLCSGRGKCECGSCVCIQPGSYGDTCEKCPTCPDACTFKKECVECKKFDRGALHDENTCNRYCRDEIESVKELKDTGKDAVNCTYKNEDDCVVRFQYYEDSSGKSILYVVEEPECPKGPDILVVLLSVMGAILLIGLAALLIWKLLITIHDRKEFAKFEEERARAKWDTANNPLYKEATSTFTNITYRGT
# Sequence of Integrin alpha-IIb/beta-3 (P08514 32-887 limits assumed): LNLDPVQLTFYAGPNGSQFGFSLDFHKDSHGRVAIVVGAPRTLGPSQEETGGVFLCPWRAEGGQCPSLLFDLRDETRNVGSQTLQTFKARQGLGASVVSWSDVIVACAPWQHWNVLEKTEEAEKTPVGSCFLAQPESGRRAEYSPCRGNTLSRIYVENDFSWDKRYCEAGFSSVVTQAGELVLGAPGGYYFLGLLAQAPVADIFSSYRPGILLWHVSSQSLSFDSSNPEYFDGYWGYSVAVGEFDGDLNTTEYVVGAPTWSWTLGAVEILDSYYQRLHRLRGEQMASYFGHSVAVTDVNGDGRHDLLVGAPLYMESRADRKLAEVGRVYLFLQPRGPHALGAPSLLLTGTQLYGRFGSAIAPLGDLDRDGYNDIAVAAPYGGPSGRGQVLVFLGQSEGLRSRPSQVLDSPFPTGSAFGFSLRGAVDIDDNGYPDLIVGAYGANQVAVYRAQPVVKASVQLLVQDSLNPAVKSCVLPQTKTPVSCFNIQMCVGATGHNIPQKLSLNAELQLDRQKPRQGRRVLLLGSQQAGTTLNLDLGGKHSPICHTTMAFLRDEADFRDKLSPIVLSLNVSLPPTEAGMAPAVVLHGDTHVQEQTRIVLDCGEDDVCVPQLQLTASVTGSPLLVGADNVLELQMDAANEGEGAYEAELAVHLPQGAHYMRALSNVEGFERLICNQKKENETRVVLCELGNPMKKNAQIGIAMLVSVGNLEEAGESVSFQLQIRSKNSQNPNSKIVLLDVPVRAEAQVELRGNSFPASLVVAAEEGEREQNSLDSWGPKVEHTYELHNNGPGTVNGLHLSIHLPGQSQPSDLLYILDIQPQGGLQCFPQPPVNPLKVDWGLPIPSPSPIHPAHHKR
# Sequence of Integrin alpha-IIb/beta-3 (P08514 891-1039 limits assumed): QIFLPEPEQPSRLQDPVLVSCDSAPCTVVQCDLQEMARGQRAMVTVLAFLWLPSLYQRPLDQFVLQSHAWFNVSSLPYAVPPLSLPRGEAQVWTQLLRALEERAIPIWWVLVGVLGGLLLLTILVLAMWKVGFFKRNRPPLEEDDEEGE
row,Structure (SMILES),IC50 [nM]
1,O=C(O)CN1Cc2ccc(NC(=O)c3ccc(C4CCNCC4)cc3)cc2C1=O,270
2,O=C(O)CN1Cc2ccc(NC(=O)c3ccc4c(c3)CNCC4)cc2C1=O,1200
3,O=C(O)CCN1Cc2ccc(NC(=O)CCCC3CCNCC3)cc2C1=O,5.5
4,O=C(O)CCN1Cc2ccc(NC(=O)c3ccc(C4CCNCC4)cc3)cc2C1=O,6.8
5,O=C(O)CCN1Cc2ccc(NC(=O)c3ccc4c(c3)CNCC4)cc2C1=O,6.5
6,CC(CC(=O)O)N1Cc2ccc(NC(=O)CCCC3CCNCC3)cc2C1=O (racemic),350
7,CC(CC(=O)O)N1Cc2ccc(NC(=O)c3ccc(N4CCNCC4)cc3)cc2C1=O (racemic),37
8,CC(CC(=O)O)N1Cc2ccc(NC(=O)c3ccc4c(c3)CNCC4)cc2C1=O (racemic),6.5

# System: Platelet
# Test: Inhibition of ADP-induced human platelet aggregation in platelet-rich plasma by Born's method
# Format: functional
row,Structure (SMILES),IC50 [nM]
1,O=C(O)CCCN1Cc2ccc(NC(=O)CC3CCNCC3)cc2C1=O,1800
2,O=C(O)CN1Cc2ccc(NC(=O)CC3CCNCC3)cc2C1=O,51000
3,O=C(O)CN1Cc2ccc(NC(=O)c3ccc(N4CCNCC4)cc3)cc2C1=O,3300
4,O=C(O)CCN1Cc2ccc(NC(=O)CC3CCNCC3)cc2C1=O,7400
5,O=C(O)CCN1Cc2ccc(NC(=O)c3cccc(N4CCNCC4)c3)cc2C1=O,2700
6,CC(CC(=O)O)N1Cc2ccc(NC(=O)c3cccc(N4CCNCC4)c3)cc2C1=O (racemic),62000
7,CC(CC(=O)O)N1Cc2ccc(NC(=O)CC3CCNCC3)cc2C1=O (racemic),2700
8,CCCCS(=O)(=O)N[C@@H](Cc1ccc(OCCCCC2CCNCC2)cc1)C(=O)O [TIROFIBAN],32
